Measurements: patent US6262073A, “Pharmaceutical methods of use of 5-substituted and 5,5 disubstituted-3,4-dihydroxy-2(5H)-furanones” (Oxis International Inc., priority 2000, dated 2001)

Tests used:
[1] = molecular target: T1, 5-Lipoxygenase (crude enzyme preparation from rat basophilic leukemia cells, RBL-1) (Rattus norvegicus, UniProt P12527); assay: 5-Lipoxygenase screen (5-LO), 5-HETE by RIA; assay type: biochemical; conditions: for inhibition at 30 µM: read-out: 5-LO percent inhibition; for inhibition at 1 µM: read-out: Percent inhibition of 5-LO
T1 construct: crude enzyme preparation from rat basophilic leukemia cells (RBL-1); endogenous in cells; host or cells: rat basophilic leukemia cells (RBL-1)
T1 sequence (P12527 1-673): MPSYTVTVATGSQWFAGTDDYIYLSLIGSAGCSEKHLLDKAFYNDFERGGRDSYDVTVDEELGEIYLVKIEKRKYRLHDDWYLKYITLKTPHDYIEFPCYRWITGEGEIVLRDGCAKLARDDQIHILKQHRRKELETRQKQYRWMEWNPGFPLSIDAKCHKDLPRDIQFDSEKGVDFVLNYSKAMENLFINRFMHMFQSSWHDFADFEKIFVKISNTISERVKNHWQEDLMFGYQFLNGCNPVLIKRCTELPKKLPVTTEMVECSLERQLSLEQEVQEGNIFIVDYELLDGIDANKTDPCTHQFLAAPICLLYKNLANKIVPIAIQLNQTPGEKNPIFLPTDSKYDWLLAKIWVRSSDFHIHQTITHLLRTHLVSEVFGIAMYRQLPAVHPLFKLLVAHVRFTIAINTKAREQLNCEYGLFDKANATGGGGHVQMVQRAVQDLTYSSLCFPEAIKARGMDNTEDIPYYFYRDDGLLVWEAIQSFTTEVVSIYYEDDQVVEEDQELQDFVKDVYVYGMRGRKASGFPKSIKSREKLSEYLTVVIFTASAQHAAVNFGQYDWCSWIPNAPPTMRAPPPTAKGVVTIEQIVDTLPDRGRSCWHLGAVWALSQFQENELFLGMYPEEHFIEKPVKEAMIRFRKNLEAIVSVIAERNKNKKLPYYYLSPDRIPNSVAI
Experimental: (§1) The compounds of the invention were screened for their anti-inflammatory activity using a series of in vitro tests the details of which are given below. The activity of various compounds against 5-lipoxygenase, cycloxygenase-1, cycloxygenase-2 and lipid peroxidase was evaluated. Results of the screening procedures are included in TABLE I, and the activity against 5-lipoxygenase at a test concentration of 1 μM in Table II.
5-Lipoxygenase catalyzes the oxidative metabolism of arachidonic acid to […] (5-HETE), the initial reaction leading to the formation of the leukotrienes. Briefly, the testing procedure utilizes a crude enzyme preparation from rat basophilic leukemia cells (RBL-1) according to the methods of T. Shimuzu et al. Pro. […] Test compounds are pre-incubated with the enzyme preparation for 5 minutes at room temperature and the reaction is initiated by the addition of arachidonic acid. Following an 8 minute incubation at room temperature, the reaction is terminated by the addition of citric acid and concentrations of 5-HETE are determined by RIA. Compounds are screened at 30 μM.

[2] = molecular target: T2, Cyclooxygenase-1 (cyclooxygenase from ram seminal vesicles) (Ovis aries, UniProt P05979); assay: Cyclooxygenase-1 screen (COX-1); assay type: biochemical; conditions: 300 μM
T2 construct: cyclooxygenase from ram seminal vesicles; from tissue; host or cells: ram seminal vesicles
T2 sequence (P05979 25-600): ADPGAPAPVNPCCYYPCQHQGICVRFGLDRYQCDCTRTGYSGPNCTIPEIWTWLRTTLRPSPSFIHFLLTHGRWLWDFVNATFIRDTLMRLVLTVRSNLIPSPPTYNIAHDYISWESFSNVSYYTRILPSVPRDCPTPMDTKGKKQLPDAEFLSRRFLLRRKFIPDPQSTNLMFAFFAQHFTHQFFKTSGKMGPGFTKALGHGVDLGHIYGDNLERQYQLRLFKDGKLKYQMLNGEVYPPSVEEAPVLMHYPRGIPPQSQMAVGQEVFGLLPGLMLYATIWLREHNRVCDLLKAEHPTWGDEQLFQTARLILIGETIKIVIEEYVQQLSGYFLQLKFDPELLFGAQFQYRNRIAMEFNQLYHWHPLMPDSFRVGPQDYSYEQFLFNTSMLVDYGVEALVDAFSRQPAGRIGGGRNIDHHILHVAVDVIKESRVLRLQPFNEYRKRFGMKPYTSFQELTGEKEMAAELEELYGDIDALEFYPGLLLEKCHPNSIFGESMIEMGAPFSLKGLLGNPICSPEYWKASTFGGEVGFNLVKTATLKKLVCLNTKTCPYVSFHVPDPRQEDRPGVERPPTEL
Experimental: as §1
Cyclooxygenase-1 is involved in the formation of prostaglandins and thromboxane via the oxidative metabolism of arachidonic acid. Briefly, cyclooxygenase from ram seminal vesicles is incubated with arachidonic acid (100 μm) for 2 minutes at 37° C. in the presence or absence of test compounds according to the methods of A. T. Evans et al., Biochem. Pharm. 36:2035-2037(1987) and R. Boopathy et al., Biochem J. 239:371-377 (1968). The assay is terminated by the addition of trichioroacetic acid and cyclooxygenase activity is determined by reading the absorbance at 530 nm. […]

[3] = tested on: Nuclear Factor-kappa B (NF-κB); assay: NF-κB lacZ (κB-Z) reporter assay in transfected Jurkat cells stimulated with A23187 and PMA; assay type: cell-based, human; conditions: for inhibition at 10 µM: Homo sapiens, read-out: NF-κB percent inhibition
Experimental: The human T lymphoid cell line Jurkat was transfected with a response element lacZ reporter in which transcription of the β-galactosidase gene is directed by the binding site for the NF-κB transcription factor. […] At the end of the incubation, the cells are spun down and resuspended in the buffer and FDG (fluorescein di-β-D-galactopyranoside) solution. The covered plates are further incubated in the dark for 16 hours at 25° C. […] Compounds were screened at 10 μM.

[4] = tested on: Lipid peroxidation (rat liver microsomes); assay: Lipid peroxidation screen (LPO), CCl4-induced, liver microsomes; assay type: biochemical; conditions: 300 μM
Experimental: as §1
Lipid peroxidation is a consequence of various stimuli, including reactive free radicals. Polyunsaturated fatty acids associated with plasma membranes are degraded due to enzymatic induction by reactive agents such as CCl4, leading to cellular damage. Briefly, microsomes are prepared from rat livers and the protein concentration is determined according to the method of D. Mansuy et al., Biochem. Biophys. Res. Comm. 135:1015-1021(1986). A reaction mixture consisting of 2 mg of the microsomal preparation, an NADPH generating system, 20 mM CCl4 and test compound are incubated for 12 minutes at 37° C. The reaction is terminated by the addition of a mixture of thiobarbituric acid and trichloroacetic acid. The absorbance is read at 535 nm and is proportional to the concentration of malondialdehyde. Compounds are screened at 300 μM.

[5] = molecular target: T3, Cyclooxygenase-2 (prostaglandin H synthetase-2) from sheep placenta (Ovis aries, UniProt P79208); assay: Cyclooxygenase-2 screen (COX-2); assay type: biochemical; conditions: read-out: COX-2 percent inhibition
T3 construct: cyclooxygenase-2 from sheep placenta; from tissue; host or cells: sheep placenta
T3 sequence (P79208 17-603): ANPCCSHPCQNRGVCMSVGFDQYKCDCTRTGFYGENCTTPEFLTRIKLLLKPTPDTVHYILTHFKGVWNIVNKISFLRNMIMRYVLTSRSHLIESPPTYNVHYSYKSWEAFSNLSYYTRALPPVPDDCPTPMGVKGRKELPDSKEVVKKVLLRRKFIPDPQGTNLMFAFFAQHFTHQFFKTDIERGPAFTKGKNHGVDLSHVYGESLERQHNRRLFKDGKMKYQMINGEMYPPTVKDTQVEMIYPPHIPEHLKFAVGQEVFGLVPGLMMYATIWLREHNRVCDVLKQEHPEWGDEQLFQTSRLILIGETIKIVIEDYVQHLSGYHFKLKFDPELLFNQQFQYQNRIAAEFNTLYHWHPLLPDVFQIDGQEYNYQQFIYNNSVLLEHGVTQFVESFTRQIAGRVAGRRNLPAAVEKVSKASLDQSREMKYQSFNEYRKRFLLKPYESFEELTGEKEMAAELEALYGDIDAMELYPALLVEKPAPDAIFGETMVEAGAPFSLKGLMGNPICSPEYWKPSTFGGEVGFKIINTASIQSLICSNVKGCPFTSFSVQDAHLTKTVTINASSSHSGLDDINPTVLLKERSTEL
Experimental: as §1
Cyclooxygenase-2, also known as prostaglandin H synthetase-2, catalyzes the rate- limiting step in the synthesis of inflammatory prostaglandins. In this reaction cyclooxygenase-2 catalyzes the oxygenation of unesterified precursors to form cyclic endoperoxide derivatives, including prostaglandin H. Briefly, cyclooxygenase-2 from sheep placenta, 14 μg/assay tube, is incubated with arachidonic acid (500 μM) for 1.5 minutes at 27° C. in the absence or presence of test compounds according to the methods of A. T. Evans, et al., Biochem Pharm. […] Res. Comm. […] Compounds are screened at 300 μM.

[6] = 10 μM, κB-Z Jurkat cells, A23187 and PMA (Table III)

| 5-LO percent inhibition ([1]; Table I cell printed "@1" instead of the 30 μM of the head) | IC50 ([1]; Table II) | Percent inhibition of 5-LO ([1]; test conc. 1 μM (Table II)) | IC50 ([3]; Table III) | SMILES | inhibition at 30 µM [1] | inhibition at 1 µM ([1]; test conc. 1 μM (Table II)) | COX-1 percent inhibition [2] | inhibition at 10 µM [3, 6] | LPO percent inhibition [4] | inhibition at 300 µM [5] | NF-κB percent inhibition [3, 6] |
| --- | --- | --- | --- | --- | --- | --- | --- | --- | --- | --- | --- |
|  |  |  |  | CC1(c2ccc(-c3ccccc3)cc2)OC(=O)C(O)=C1O (racemic) [Example 2, 5-[(1,1'-Biphenyl)-4-yl]-3,4-dihydroxy-5-methyl-2(5H)-furanone] | 107% | 15% | 33% | 90% | 78% | 22% |  |
|  |  |  |  | CCCC1(c2ccc(-c3ccccc3)cc2)OC(=O)C(O)=C1O (stereo not drawn) [Example 5, 5-[(1,1'-Biphenyl)-4-yl]-3,4-dihydroxy-5-propyl-2(5H)-furanone] | 99% | 68% | 13% | 68% | 70% | 22% |  |
|  |  |  |  | CC(C)CC1(c2ccc(-c3ccccc3)cc2)OC(=O)C(O)=C1O (stereo not drawn) [Example 6, 5-[(1,1'-Biphenyl)-4-yl]-3,4-dihydroxy-5-(2-methylpropyl)-2(5H)-furanone] | 96% | 70% | 67% | 59% | 82% | 46% |  |
|  |  |  |  | O=C1OC(c2ccccc2)(c2ccc(-c3ccccc3)cc2)C(O)=C1O (stereo not drawn) [Example 7, 5-[(1,1'-Biphenyl)-4-yl]-3,4-dihydroxy-5-phenyl-2(5H)-furanone] | 102% | 61% | 52% | 21% | 73% | 34% |  |
|  |  |  |  | Cc1ccccc1C#CCCC1OC(=O)C(O)=C1O (stereo not drawn) [Example 28, 3,4-Dihydroxy-5-[(4-(2-methyl)phenyl)-3-butynyl]-2(5H)-furanone] | 58% |  | 4% |  | 61% | 15% |  |
|  |  |  |  | CCC/C=C\Cc1ccccc1C#CCCC1OC(=O)C(O)=C1O (stereo not drawn) [Example 29] | 81% | 56% | 55% |  | 72% | 26% |  |
|  |  |  |  | O=C1OC(CCC#Cc2ccccc2CSc2ccccc2)C(O)=C1O (stereo not drawn) [Example 30, 3,4-Dihydroxy-5-[(4-(2-(phenylthio)methyl)phenyl)-3-butynyl]-2(5H)-furanone] | 100% | 70% | 26% |  | 62% | 16% |  |
|  |  |  |  | CCCCNS(=O)(=O)c1ccccc1C#CCCC1OC(=O)C(O)=C1O (stereo not drawn) [Example 31] | 81% |  | 37% |  | 73% | 23% |  |
|  |  |  |  | CCCSCc1ccccc1C#CCCC1OC(=O)C(O)=C1O (stereo not drawn) [Example 33, 3,4-Dihydroxy-5-[(4-(2-(propylthio)methyl)phenyl)-3-butynyl]-2(5H)-furanone] | 84% |  | 37% |  | 74% | 20% |  |
|  |  |  |  | CCCCCSCc1ccccc1C#CCCC1OC(=O)C(O)=C1O (stereo not drawn) [Example 34, 3,4-Dihydroxy-5-[(4-(2-(1-pentylthio)methyl)phenyl)-3-butynyl]-2(5H)-furanone] | 92% |  | 67% |  | 63% | 43% |  |
|  |  |  |  | CCCS(=O)(=O)Cc1ccccc1C#CCCC1OC(=O)C(O)=C1O (stereo not drawn) [Example 35, 3,4-Dihydroxy-5-[(4-(2-(propylsulfonyl)methyl)phenyl)-3-butynyl]-2(5H)-furanone] | 30% |  | 25% |  | 60% | 13% |  |
| 85% | 0.16 µM | 91% | 6 µM | O=C1OC(CCC#Cc2cc(Cc3ccc(F)cc3)cs2)C(O)=C1O (stereo not drawn) [Example 36, 3,4-Dihydroxy-5-[2-(4-(4-fluorophenylmethyl)thiophene)-(3-butynyl)]-2(5H)-furanone] |  |  |  |  |  |  | 61% |
|  |  |  |  | CCC/C=C\Cc1ccccc1/C=C\CCC1OC(=O)C(O)=C1O (stereo not drawn) [Example 40] | 99% |  | 38% |  | 65% | 25% |  |
